Results: patent US4684650A, “Antihypertensive fluorophenylindanyl imidazolidinoneethylpiperazines” (priority 1984, dated 1987)
Read-outs that look alike come from different tables or passages of the source.

Key:
[1] = system: 5-HT pressor responses; assay: Antagonism to 5-HT pressor responses in pithed rats; type: in vivo; details: for change in vivo at 0.02 mg/kg / ED50: Rattus norvegicus, iv
Protocol: (§1) The rat is anaesthetized with ether, tracheotomized, artificial respired and pithed. The knitting-needle is introduced through the right orbita into the cranial cavity and passed through foramen magnum into the spinal canal as far as possible. The spinal cord is destroyed by turning the needle. After vagotomi both carotides are ligated and a catheter placed in the right one for pressure recording. The rat is adrenalectomized. […] The initial and post medication mean pressor effect is calculated, and the mean pressor effect is calculated as % of the initial value. Two to five preparations are employed for each dose level. The ED50 is determined.

[2] = system: spontaneous hypertensive rats (SHR); assay: Antihypertensive effect in spontaneous hypertensive rats (SHR); type: in vivo; details: for change in vivo at 5 mg/kg / ED10: Rattus norvegicus, ip; for change in vivo at 5 mg/kg: 1 h; for peripheral or central action: in words
Protocol: Antihypertensive effect in spontaneous hypertensive rats (SHR)
The femoral artery of male SHR is cannulated in anaestesia for blood pressure recordings. After a stabilization period of 11/2 h after discontinuation of the anaesthesia initial blood pressure curves are recorded and the systolic (SAP)/diastolic (DAP) pressure determined (-20, -10, 0, min. p.i.) Test substance is injected i.p. and the pressure curve recorded for one hour. The change in SAP/DAP is calculated in percent at mean initial values at different times (10, 20, 30, 40, 50 and 60 minutes after injection). At least two SHR are used per dose level. The maximum change is used for estimation of the drug effect.

[3] = system: phenylephrine pressor responses; assay: Antagonism to phenylephrine pressor responses in pithed rats; type: in vivo; details: for change in vivo at […] / ED50: Rattus norvegicus, iv; for change in vivo at […]: read-out: Effects on pressor response of Phenylephrine, % eff. of […], pithed rats, […], jugular vein, read-out: Effects on pressor response of Phenylephrine, % eff. of 0.31 mg/kg; for ED50: read-out: Effects on pressor response of Phenylephrine, ED50
Protocol: as §1

[4] = system: 1-5-HTP-induced head shakes; assay: 1-5-HTP-induced head shakes; type: in vivo; details: Rattus norvegicus, sc, rats, 1-5-HTP 75 mg/kg i.p. after citalopram; read-out: 1-5-HTP-antg. ED50
Protocol: The rats were pretreated subcutaneously with test compound or saline simultaneously with or 90 min before injection of citalopram (10 mg/kg s.c.).
Each group consisted of 4-12 rats.

[5] = system: methylphenidate induced stereotypies; assay: Methylphenidate Antagonism; type: in vivo, mice; details: for ED50: Mus musculus, ip, read-out: MePh antg. ED50, i.p., mice, 2 hours before methylphenidate 60 mg/kg s.c.
Protocol: The experiments were made as described by Pedersen and Christensen (1972) Acta Pharmacol. et Toxicol. 31, 488-496.--Briefly, test compounds or saline were injected i.p. 2 hours before methylphenidate, 60 mg/kg s.c. 3 pairs of mice were used for each dose level. After methylphenidate injection the mice were placed in observation cages for one hour. The cages were placed on corrugated paper, the corrugation facing upwards.

[6] = target: T1, 5-HT2 receptors (Rattus norvegicus, UniProt P14842); assay: 3H-spiroperidol binding to 5-HT2 receptors; details: rat whole cortex, 0.5 nM 3H-spiroperidol, 0.3 μM sulpiride; read-out: 3H-SPI binding 5-HT2 IC50
T1 construct: Rat whole cortex was homogenized by an Ultra Turrax homogenizer; from tissue; host or cells: rat whole cerebral cortex, crude washed membranes
T1 sequence (P14842 whole entry): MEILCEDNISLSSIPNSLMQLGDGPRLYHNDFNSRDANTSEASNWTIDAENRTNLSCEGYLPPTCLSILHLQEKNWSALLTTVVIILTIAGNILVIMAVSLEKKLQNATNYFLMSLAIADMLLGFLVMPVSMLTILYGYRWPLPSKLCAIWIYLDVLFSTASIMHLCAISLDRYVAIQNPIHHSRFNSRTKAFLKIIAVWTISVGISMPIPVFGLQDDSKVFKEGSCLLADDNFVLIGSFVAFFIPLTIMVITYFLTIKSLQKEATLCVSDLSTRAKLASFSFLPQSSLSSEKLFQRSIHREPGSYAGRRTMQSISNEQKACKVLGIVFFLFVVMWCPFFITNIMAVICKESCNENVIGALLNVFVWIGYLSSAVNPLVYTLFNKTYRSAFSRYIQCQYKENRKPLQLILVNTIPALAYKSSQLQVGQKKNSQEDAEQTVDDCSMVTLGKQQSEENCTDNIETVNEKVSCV
Protocol: ^3 H-spiroperidol binding to 5-HT2 receptors.
Rat whole cortex was homogenized by an Ultra Turrax homogenizer in 100 vol. of 50 mM Tris buffer pH 7.7. The homogenate was centrifuged at 20,000 g for 10 minutes at 4° C. The pellet was rehomogenized in another volume of buffer and centrifuged as mentioned above. The final pellet was rehomogenized in 50 mM Tris buffer pH 7.7 containing 120 mM NaCl, 5 mM KCl, 2 mM CaCl2 and 1 mM MgCl2 (ion mix) in a volume corresponding to 12.5 mg original tissue per ml.
Test drugs were dissolved in water; ^3 H-spiroperidol (NEN, 28-30 Ci/mmol) was diluted in 3 μM sulpiride, and 800 μl membrane suspension were added. Final concentration of ligand and sulpiride were 0.5 nM and 0.3 μM, respectively. The samples were incubated at 37° C. for 10 min. The samples were then filtered under vacuum through Whatman GF/B glass-fiber filters. The tubes were then rinsed with 5 ml incubation buffer, which was poured on the filters. The filters were finally washed twice with 5 ml buffer and placed in counting vials. After addition of 5 ml scintillation fluid (Lumagel) radioactivity was estimated by liquid scintillation counting. Non-specific binding was obtained by adding Mianserin (1 μM) to separate samples. Each drug was tested at least twice at 5 concentrations in triplicate. IC50-values were determined from log concentration-response curves.--The presence of sulpiride excluded binding to dopamine D-2 receptors.

[7] = pithed rats, 0.02 mg/kg, jugular vein, read-out: Effects on pressor response of 5-HT, % eff. of 0.02 mg/kg
[8] = 5 mg/kg ip, diastolic pressure (DAP), max change within one hour, read-out: Antihypertensive eff. SHR, max eff. in % of 5 mg/kg ip, DAP
[9] = 5 mg/kg ip, systolic pressure (SAP), max change within one hour, read-out: Antihypertensive eff. SHR, max eff. in % of 5 mg/kg ip, SAP
[10] = read-out: Effects on pressor response of 5-HT, % eff. of 0.02 mg/kg, pithed rats, 0.02 mg/kg, jugular vein
[11] = read-out: Antihypertensive eff. SHR, max eff. in % of 5 mg/kg ip, DAP, 5 mg/kg ip, diastolic pressure (DAP), max change within one hour
[12] = read-out: Antihypertensive eff. SHR, max eff. in % of 5 mg/kg ip, SAP, 5 mg/kg ip, systolic pressure (SAP), max change within one hour
[13] = pithed rats, 0.02 mg/kg, jugular vein
[14] = 5 mg/kg ip, diastolic pressure (DAP), max change within one hour
[15] = 5 mg/kg ip, systolic pressure (SAP), max change within one hour

Row | Structure (SMILES) | change in vivo at 0.02 mg/kg [1, 7] | change in vivo at 5 mg/kg [2, 8] | change in vivo at 5 mg/kg [2, 9] | change in vivo at […] [3] | ED50 [4] | ED50 [5] | change in vivo at 0.02 mg/kg [1, 10] | change in vivo at 5 mg/kg [2, 11] | change in vivo at 5 mg/kg [2, 12] | IC50 [6] | other results
1 | CC(C)c1ccc2c(c1)[C@H](N1CCN(CCN3CCNC3=O)CC1)C[C@H]2c1ccc(F)cc1 (relative stereo) [compound 5] | -6% | -10% | -9% | -33% | 1.7 µmol/kg | 24 µmol/kg | – | – | – | – | –
2 | O=C1NCCN1CCN1CCN([C@@H]2C[C@@H](c3ccc(F)cc3)c3ccc(C(F)(F)F)cc32)CC1 (relative stereo) [compound 6] | – | – | – | – | 0.29 µmol/kg | 1.8 µmol/kg | -52% | -14% | -10% | 9.9 nM | –
3 | O=C1OCCN1CCN1CCN([C@@H]2C[C@@H](c3ccc(F)cc3)c3ccccc32)CC1 (relative stereo) [compound 7] | -4% | -19% | -15% | -18% | 2.7 µmol/kg | > 83 µmol/kg | – | – | – | – | –
4 | O=C1OCCN1CCN1CCN([C@@H]2C[C@@H](c3ccc(F)cc3)c3ccc(F)cc32)CC1 (relative stereo) [compound 8] | -40% | -26% | -20% | -19% | 1.3 µmol/kg | 18 µmol/kg | – | – | – | – | ED50 ([1]; pithed rats, jugular vein, read-out: Effects on pressor response of 5-HT, ED50): 0.084 µmol/kg; ED50 ([3]; pithed rats, jugular vein): 4.35 µmol/kg; Phenylephr. antg./5-HT antg. (ratio) ([3]; pithed rats, ratio of phenylephrine ED50 to 5-HT ED50): 52
5 | CN1CCN(CCN2CCN([C@@H]3C[C@@H](c4ccc(F)cc4)c4ccccc43)CC2)C1=O (relative stereo) [compound 11] | – | – | – | – | 1.4 µmol/kg | > 80 µmol/kg | -81% | -8% | -6% | 13 nM | –
6 | CCN1CCN(CCN2CCN([C@@H]3C[C@@H](c4ccc(F)cc4)c4ccc(F)cc43)CC2)C1=O (relative stereo) [compound 12] | – | – | – | – | 0.092 µmol/kg | > 75 µmol/kg | -94% | 4% | 4% | 4.9 nM | peripheral or central action [2]: marked central effects
7 | CC(C)N1CCN(CCN2CCN([C@@H]3C[C@@H](c4ccc(F)cc4)c4ccc(F)cc43)CC2)C1=O (relative stereo) [compound 13] | – | – | – | – | 0.11 µmol/kg | > 73 µmol/kg | -79% | -5% | -5% | 5.2 nM | peripheral or central action [2]: marked central effects
8 | O=C1OCCN1CCCN1CCN([C@@H]2C[C@@H](c3ccc(F)cc3)c3ccc(F)cc32)CC1 (relative stereo) [compound 15] | -31% | -18% | -12% | -7% | 0.31 µmol/kg | 39 µmol/kg | – | – | – | – | –
9 | O=c1[nH]c2ccccc2n1CCN1CCN([C@@H]2C[C@@H](c3ccc(F)cc3)c3ccc(F)cc32)CC1 (relative stereo) [compound 16] | – | – | – | – | 0.28 µmol/kg | > 72 µmol/kg | -52% | -11% | -15% | 9.7 nM | –
10 | O=c1[nH]c2ccccc2c(=O)n1CCN1CCN([C@H]2C[C@H](c3ccc(F)cc3)c3ccccc32)CC1 (relative stereo) [compound 19] | – | – | – | – | – | > 70 µmol/kg | – | – | – | – | Effects on pressor response of 5-HT, % eff. of 0.02 mg/kg [1, 13]: -35%; Antihypertensive eff. SHR, max eff. in % of 5 mg/kg ip, DAP [2, 14]: -27%; Antihypertensive eff. SHR, max eff. in % of 5 mg/kg ip, SAP [2, 15]: -22%; Effects on pressor response of Phenylephrine, % eff. of […] ([3]; pithed rats, jugular vein): -42%
11 | Fc1ccc([C@@H]2C[C@@H](N3CCN(CCN4CCCNC4=S)CC3)c3cc(F)ccc32)cc1 (relative stereo) [compound 26] | – | – | – | – | 0.11 µmol/kg | – | -67% | -19% | -13% | 7.7 nM | –
12 | O=C1NCCN1CCN1CCN([C@@H]2C[C@@H](c3ccc(F)cc3)c3ccc(Cl)cc32)CC1 (single isomer, unassigned) [-20] | – | – | – | – | < 8.4 µmol/kg | – | – | – | – | – | Effects on pressor response of 5-HT, % eff. of 0.02 mg/kg [1, 13]: -11%; Antihypertensive eff. SHR, max eff. in % of 5 mg/kg ip, DAP [2, 14]: -16%; Antihypertensive eff. SHR, max eff. in % of 5 mg/kg ip, SAP [2, 15]: -7%; Effects on pressor response of Phenylephrine, % eff. of […] ([3]; pithed rats, jugular vein): +21%; MePh antg. ED50 ([5]; i.p., mice, 2 hours before methylphenidate 60 mg/kg s.c.): > 67 µmol/kg
13 | O=C(c1ccc(F)cc1)C1CCN(CCn2c(=O)[nH]c3ccccc3c2=O)CC1 [Ketanserin, reference compound] | – | – | – | – | 0.58 µmol/kg | 101 µmol/kg | -46% | -24% | -32% | – | ED50 ([1]; read-out: Effects on pressor response of 5-HT, ED50, pithed rats, jugular vein): 0.033 µmol/kg; ED10 ([2]; read-out: Antihypertensive eff. SHR, ED10 DAP): 1.2 µmol/kg; ED10 ([2]; read-out: Antihypertensive eff. SHR, ED10 SAP): 1.6 µmol/kg; ED50 [3]: 3.6 µmol/kg
